# Target: T1, human NK2 receptor (Homo sapiens, UniProt P21452)
# T1 construct: purchased Perkin Elmer biosignal Inc. 6110510
# T1 sequence (P21452 1-398): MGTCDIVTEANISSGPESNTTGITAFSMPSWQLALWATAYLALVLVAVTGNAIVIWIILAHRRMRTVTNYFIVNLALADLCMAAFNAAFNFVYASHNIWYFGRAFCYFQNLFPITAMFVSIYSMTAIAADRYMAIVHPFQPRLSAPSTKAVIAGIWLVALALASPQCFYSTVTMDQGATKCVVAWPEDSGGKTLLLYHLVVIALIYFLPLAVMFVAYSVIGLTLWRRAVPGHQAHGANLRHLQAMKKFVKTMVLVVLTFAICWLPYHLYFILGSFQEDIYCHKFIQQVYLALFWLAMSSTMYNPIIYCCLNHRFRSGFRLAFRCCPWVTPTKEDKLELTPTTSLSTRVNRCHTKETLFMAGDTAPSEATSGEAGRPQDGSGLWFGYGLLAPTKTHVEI
# Experiment: [3H]SR48968 competition binding assay
# Settings: [3H]SR48968 displacement, membranes of CHO cells stably expressing recombinant human NK2 receptor; Ki from IC50 by Cheng-Prussoff
# Experimental: [^3H]SR48968 Competition Binding Assay
# hNK2 receptor binding experiment were performed using [^3H]SR48968 (Catalog No. TRK398, specific activity: 27.0 Ci/mmol, Amersham, GE Healthcare UK limited, Buckinghamshire, UK) and membrane isolated from CHO cells stably expressing recombinant human NK2 receptor (product No. 6110510, Perkin Elmer biosignal Inc., Shelton, Conn., USA). After thawing, the membrane homogenates were centrifuged at 48,000×g for 10 min at 4° C., the pellets were resuspended in the 50 mM Tris-HCl, 3 mM MnCl2, 4 μg/mL Chymostatin, 0.04% BSA binding buffer at pH 7.4 to a final assay concentration of 6.5 μg protein/well. For inhibition experiments, membranes were incubated with [^3H]SR48968 at a concentration equal to KD value of radioligand and 10 concentrations of the inhibitory compound (0.0003-10 μM) (in a total reaction volume of 500 μl) for 75 min at room temperature (RT). At the end of the incubation, membranes were filtered onto unitfilter (96-well white microplate with bonded GF/C filter preincubated 1 h in 0.3% polyethylenimine, Packard BioScience, Meriden, Conn.) with a Filtermate 196 harvester (Packard BioScience) and washed 4 times with ice-cold 50 mM Tris-HCl, pH 7.4 buffer. Nonspecific binding was measured in the presence of 10 μM 1-{2-[(R)-3-(3,4-dichloro-phenyl)-1-(3,4,5-trimethoxy-benzoyl)-pyrrolidin-3-yl]-ethyl}-4-phenyl-piperidine-4-carboxylic acid amide. The radioactivity on the filter was counted (5 min) on a Packard Top-count microplate scintillation counter with quenching correction after addition of 45 μl of microscint 40 (Canberra Packard S. A., Zürich, Switzerland) and shaking for 1 h. Inhibition curves were fitted according to the Hill equation: y=100/(1+(x/IC50)^nH), where nH=slope factor using Excel-fit 4 software (Microsoft). IC50 values were derived from the inhibition curve and the affinity constant (Ki) values were calculated using the Cheng-Prussoff equation Ki=IC50/(1+[L]/KD) where [L] was the concentration of radioligand and KD was its dissociation constant at the receptor, derived from the saturation isotherm.
row,Ki [nM],SMILES
1,0.7,"CN(C(=O)c1ccc(Cl)c(C(F)(F)F)c1)[C@H]1CN(C(=O)C2CCN(C(=O)C3(C)CC3)CC2)C[C@@H]1c1ccc(Cl)c(Cl)c1 (racemic) [Example 97, 4-Chloro-N-{(3RS,4SR)-4-(3,4-dichloro-phenyl)-1-[1-(1-methyl-cyclopropanecarbonyl)-piperidine-4-carbonyl]-pyrrolidin-3-yl}-N-methyl-3-trifluoromethyl-benzamide]"
2,2.75,"CN(C(=O)c1ccc(Cl)cc1)[C@@H]1CN(C(=O)N2CCN(S(C)(=O)=O)CC2)C[C@H]1c1ccc(Cl)c(Cl)c1 (racemic) [Example 12, rac-4-Chloro-N-[(3S,4R)-4-(3,4-dichloro-phenyl)-1-(4-methanesulfonyl-piperazine-1-carbonyl)-pyrrolidin-3-yl]-N-methyl-benzamide]"
3,17.2,"CN(C(=O)CCC1CC1)[C@H]1CN(C(=O)C2CCN(C(=O)C3(C)CC3)CC2)C[C@@H]1c1ccc(Cl)c(Cl)c1 (racemic) [Example 114, 3-Cyclopropyl-N-{(3RS,4SR)-4-(3,4-dichloro-phenyl)-1-[1-(1-methyl-cyclopropanecarbonyl)-piperidine-4-carbonyl]-pyrrolidin-3-yl}-N-methyl-propionamide]"
4,3.65,"COc1ccc(C(=O)N(C)[C@@H]2CN(C(=O)c3cccc(C#N)c3)C[C@H]2c2ccc(Cl)c(Cl)c2)cc1C(F)(F)F (racemic) [Example 47, rac-N-[(3S,4R)-1-(3-Cyano-benzoyl)-4-(3,4-dichloro-phenyl)-pyrrolidin-3-yl]-4-methoxy-N-methyl-3-trifluoromethyl-benzamide]"
5,0.4,"CN(C(=O)c1ccc(Cl)c(C(F)(F)F)c1)[C@H]1CN(C(=O)C2CCN(C3CCOCC3)CC2)C[C@@H]1c1ccc(Cl)cc1 (racemic) [Example 162, 4-Chloro-N-{(3RS,4SR)-4-(4-chloro-phenyl)-1-[1-(tetrahydro-pyran-4-yl)-piperidine-4-carbonyl]-pyrrolidin-3-yl}-N-methyl-3-trifluoromethyl-benzamide]"
6,20.7,"CN(C(=O)c1cc(F)cc(C(F)(F)F)c1)[C@@H]1CN(C(=O)N2CCN(S(C)(=O)=O)CC2)C[C@H]1c1ccc(Cl)c(Cl)c1 (racemic) [Example 18, rac-N-[(3S,4R)-4-(3,4-Dichloro-phenyl)-1-(4-methanesulfonyl-piperazine-1-carbonyl)-pyrrolidin-3-yl]-3-fluoro-N-methyl-5-trifluoromethyl-benzamide]"
7,0.8,"CN(C(=O)c1ccc(Cl)c(C(F)(F)F)c1)[C@@H]1CN(C(=O)C2CCN(C(=O)C3(C)CC3)CC2)C[C@H]1c1ccc(Cl)cc1 [Example 156, 4-Chloro-N-{(3S,4R)-4-(4-chloro-phenyl)-1-[1-(1-methyl-cyclopropanecarbonyl)-piperidine-4-carbonyl]-pyrrolidin-3-yl}-N-methyl-3-trifluoromethyl-benzamide]"
8,0.1,"COc1ccc(C(=O)N(C)[C@H]2CN(C(=O)C3CCN(CCCS(C)(=O)=O)CC3)C[C@@H]2c2ccc(Cl)cc2)cc1C(F)(F)F (racemic) [Example 131, N-{(3RS,4SR)-4-(4-Chloro-phenyl)-1-[1-(3-methanesulfonyl-propyl)-piperidine-4-carbonyl]-pyrrolidin-3-yl}-4-methoxy-N-methyl-3-trifluoromethyl-benzamide]"
9,95.3,"CN(C(=O)c1cccc(F)c1)[C@@H]1CN(C(=O)N2CCN(S(C)(=O)=O)CC2)C[C@H]1c1ccc(Cl)c(Cl)c1 (racemic) [Example 17, rac-N-[(3S,4R)-4-(3,4-Dichloro-phenyl)-1-(4-methanesulfonyl-piperazine-1-carbonyl)-pyrrolidin-3-yl]-3-fluoro-N-methyl-benzamide]"
10,93.6,"CN(C(=O)c1ccc(Cl)c(C(F)(F)F)c1)[C@@H]1CN(C(=O)C2CCN(CC3CC3)CC2)C[C@H]1c1ccc(Cl)c(Cl)c1 [Example 167, 4-Chloro-N-[(3S,4R)-1-(1-cyclopropylmethyl-piperidine-4-carbonyl)-4-(3,4-dichloro-phenyl)-pyrrolidin-3-yl]-N-methyl-3-trifluoromethyl-benzamide]"
11,9.5,"CN(C(=O)c1cc(C(F)(F)F)ccc1F)[C@@H]1CN(C(=O)N2CCN(S(C)(=O)=O)CC2)C[C@H]1c1ccc(Cl)c(Cl)c1 (racemic) [Example 38, rac-N-[(3S,4R)-4-(3,4-Dichloro-phenyl)-1-(4-methanesulfonyl-piperazine-1-carbonyl)-pyrrolidin-3-yl]-2-fluoro-N-methyl-5-trifluoromethyl-benzamide]"
12,74.3,"CCc1cc(Cl)cc(C(=O)N(C)[C@@H]2CN(C(=O)c3ccc(C#N)cc3)C[C@H]2c2ccc(Cl)c(Cl)c2)n1 (racemic) [Example 68, rac-4-Chloro-6-ethyl-pyridine-2-carboxylic acid [(3S,4R)-1-(4-cyano-benzoyl)-4-(3,4-dichloro-phenyl)-pyrrolidin-3-yl]-methyl-amide]"
13,12.4,"COc1ccc(C(=O)N(C)[C@@H]2CN(C(=O)c3ccc(C#N)cc3)C[C@H]2c2ccc(Cl)c(Cl)c2)cc1F (racemic) [Example 73, rac-N-[(3S,4R)-1-(4-Cyano-benzoyl)-4-(3,4-dichloro-phenyl)-pyrrolidin-3-yl]-3-fluoro-4-methoxy-N-methyl-benzamide]"
14,23.3,"CN(C(=O)c1ccc(Cl)cn1)[C@@H]1CN(C(=O)c2ccc(C#N)cc2)C[C@H]1c1ccc(Cl)c(Cl)c1 (racemic) [Example 69, rac-5-Chloro-pyridine-2-carboxylic acid [(3S,4R)-1-(4-cyano-benzoyl)-4-(3,4-dichloro-phenyl)-pyrrolidin-3-yl]-methyl-amide]"
15,3,"COc1ccc(C(=O)N(C)[C@@H]2CN(C(=O)c3ccncc3)C[C@H]2c2ccc(Cl)c(Cl)c2)cc1C(F)(F)F (racemic) [Example 51, rac-N-[(3S,4R)-4-(3,4-Dichloro-phenyl)-1-(pyridine-4-carbonyl)-pyrrolidin-3-yl]-4-methoxy-N-methyl-3-trifluoromethyl-benzamide]"
16,0.9,"CCc1cc(C(=O)N(C)[C@H]2CN(C(=O)C3CCN(C(=O)C4(C)CC4)CC3)C[C@@H]2c2ccc(Cl)c(Cl)c2)ccc1Cl (racemic) [Example 174, 4-Chloro-N-{(3RS,4SR)-4-(3,4-dichloro-phenyl)-1-[1-(1-methyl-cyclopropanecarbonyl)-piperidine-4-carbonyl]-pyrrolidin-3-yl}-3-ethyl-N-methyl-benzamide]"
17,23.3,"COc1ccc(C(=O)N(C)[C@H]2CN(C(=O)c3ccc(F)cc3C)C[C@@H]2c2ccc(Cl)cc2)cc1C(F)(F)F (racemic) [Example 89, N-[(3RS,4SR)-4-(4-Chloro-phenyl)-1-(4-fluoro-2-methyl-benzoyl)-pyrrolidin-3-yl]-4-methoxy-N-methyl-3-trifluoromethyl-benzamide]"
18,1.3,"COc1ccc(C(=O)N(C)[C@@H]2CN(C(=O)c3ccc(C#N)cc3)C[C@H]2c2ccc(Cl)c(Cl)c2)cc1C(C)(C)C (racemic) [Example 74, rac-3-tert-Butyl-N-[(3S,4R)-1-(4-cyano-benzoyl)-4-(3,4-dichloro-phenyl)-pyrrolidin-3-yl]-4-methoxy-N-methyl-benzamide]"
19,1.17,"CCc1ccc(C(=O)N(C)[C@@H]2CN(C(=O)N3CCN(S(C)(=O)=O)CC3)C[C@H]2c2ccc(Cl)c(Cl)c2)cc1 (racemic) [Example 14, rac-N-[(3S,4R)-4-(3,4-Dichloro-phenyl)-1-(4-methanesulfonyl-piperazine-1-carbonyl)-pyrrolidin-3-yl]-4-ethyl-N-methyl-benzamide]"
20,2.06,"COc1ccc(C(=O)N2C[C@@H](N(C)C(=O)c3ccc(OC)c(C(F)(F)F)c3)[C@H](c3ccc(Cl)c(Cl)c3)C2)cc1C (racemic) [Example 55, rac-N-[(3S,4R)-4-(3,4-Dichloro-phenyl)-1-(4-methoxy-3-methyl-benzoyl)-pyrrolidin-3-yl]-4-methoxy-N-methyl-3-trifluoromethyl-benzamide]"
21,11.3,"CN(C(=O)Cc1ccc(F)cc1)[C@@H]1CN(C(=O)C2CCN(C(=O)C3(C)CC3)CC2)C[C@H]1c1ccc(Cl)c(Cl)c1 [Example 119, N-{(3S,4R)-4-(3,4-Dichloro-phenyl)-1-[1-(1-methyl-cyclopropanecarbonyl)-piperidine-4-carbonyl]-pyrrolidin-3-yl}-2-(4-fluoro-phenyl)-N-methyl-acetamide]"
